# Source: PubChem BioAssay AID1963967 (Molecular Pharmacology Branch, DTP, NCI, 2024)
# System: 855422-203-R-J1-PDC spheroids with HUVEC/MSC, viability
# Assay: Anticancer human tumor 855422-203-R-J1-PDC patient-derived bladder carcinoma cell line growth inhibition [PI3K]
# Settings: for viability, T/C: stronger effect = lower value
# Method in brief: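 Tumor cells grown as multi-cell spheroids with HUVEC endothelial cells and MSC fibroblast-like stroma were treated with targeted agents combined with inavolisib, alpelisib, duvelisib or copanlisib. Doses fell in half-log steps from near clinical Cmax, else from 10 microM. Viability was measured.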
# [1] = curve of first compound, second compound 0.0316 µM
# [2] = curve of first compound, second compound 0.1 µM
# [3] = curve of first compound, second compound 0.316 µM
# [4] = curve of first compound, second compound 1 µM
# [5] = second compound 0.0316 µM, first compound 0.0316 µM
# [6] = second compound 0.0316 µM, first compound 0.1 µM
# [7] = second compound 0.0316 µM, first compound 0.316 µM
# [8] = second compound 0.0316 µM, first compound 1 µM
# [9] = second compound 0.0316 µM, first compound 3.16 µM
# [10] = second compound 0.0316 µM, first compound 10 µM
# [11] = second compound 0.1 µM, first compound 0.0316 µM
# [12] = second compound 0.1 µM, first compound 0.1 µM
# [13] = second compound 0.1 µM, first compound 0.316 µM
# [14] = second compound 0.1 µM, first compound 1 µM
# [15] = second compound 0.1 µM, first compound 3.16 µM
# [16] = second compound 0.1 µM, first compound 10 µM
# [17] = second compound 0.316 µM, first compound 0.0316 µM
# [18] = second compound 0.316 µM, first compound 0.1 µM
# [19] = second compound 0.316 µM, first compound 0.316 µM
# [20] = second compound 0.316 µM, first compound 1 µM
# [21] = second compound 0.316 µM, first compound 3.16 µM
# [22] = second compound 0.316 µM, first compound 10 µM
# [23] = second compound 1 µM, first compound 0.0316 µM
# [24] = second compound 1 µM, first compound 0.1 µM
# [25] = second compound 1 µM, first compound 0.316 µM
# [26] = second compound 1 µM, first compound 1 µM
# [27] = second compound 1 µM, first compound 3.16 µM
# [28] = second compound 1 µM, first compound 10 µM
# [29] = compound alone, run of 05/09/2023
# 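Note: agents incubated with spheroids for one week before read-out.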
# 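Throughout, for viability, T/C: 100% = DMSO vehicle-treated control wells.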
smiles,measurement,setting,value
C#Cc1c(F)ccc2cc(O)cc(-c3ncc4c(N5CC6CCC(C5)N6)nc(OCC56CCCN5CC(F)C6)nc4c3F)c12 (stereo not given) + Cc1nc(NC(=O)N2CCCC2C(N)=O)sc1-c1ccnc(C(C)(C)C(F)(F)F)c1,IC50,[1],> 10 µM
same,IC50,[2],> 10 µM
same,IC50,[3],> 10 µM
same,IC50,[4],> 10 µM
same,IC50,"curve of first compound, second compound 3.16 µM",< 0.0316 µM
same,IC50,"curve of first compound, second compound 10 µM",< 0.0316 µM
same,"viability, T/C",[5],106%
same,"viability, T/C",[6],92.8%
same,"viability, T/C",[7],108%
same,"viability, T/C",[8],95%
same,"viability, T/C",[9],115%
same,"viability, T/C",[10],115%
same,"viability, T/C",[11],100%
same,"viability, T/C",[12],88.6%
same,"viability, T/C",[13],103%
same,"viability, T/C",[14],93.9%
same,"viability, T/C",[15],115%
same,"viability, T/C",[16],113%
same,"viability, T/C",[17],91.5%
same,"viability, T/C",[18],92.9%
same,"viability, T/C",[19],97.6%
same,"viability, T/C",[20],94.4%
same,"viability, T/C",[21],97.4%
same,"viability, T/C",[22],102%
same,"viability, T/C",[23],70.5%
same,"viability, T/C",[24],78.3%
same,"viability, T/C",[25],70.7%
same,"viability, T/C",[26],73.2%
same,"viability, T/C",[27],75%
same,"viability, T/C",[28],63.3%
same,"viability, T/C","second compound 3.16 µM, first compound 0.0316 µM",41.5%
same,"viability, T/C","second compound 3.16 µM, first compound 0.1 µM",48.6%
same,"viability, T/C","second compound 3.16 µM, first compound 0.316 µM",47.1%
same,"viability, T/C","second compound 3.16 µM, first compound 1 µM",42.9%
same,"viability, T/C","second compound 3.16 µM, first compound 3.16 µM",40.6%
same,"viability, T/C","second compound 3.16 µM, first compound 10 µM",31.8%
same,"viability, T/C","second compound 10 µM, first compound 0.0316 µM",24.6%
same,"viability, T/C","second compound 10 µM, first compound 0.1 µM",21.5%
same,"viability, T/C","second compound 10 µM, first compound 0.316 µM",22.7%
same,"viability, T/C","second compound 10 µM, first compound 1 µM",22.3%
same,"viability, T/C","second compound 10 µM, first compound 3.16 µM",19%
same,"viability, T/C","second compound 10 µM, first compound 10 µM",7.62%
COc1c(OCCCN2CCOCC2)ccc2c3n(c(=NC(=O)c4cnc(N)nc4)nc12)CCN3,"viability, T/C",compound 0.00316 µM,100% [middle of 8 runs]
same,"viability, T/C",compound 0.01 µM,92% [middle of 8 runs]
same,"viability, T/C",compound 0.0316 µM,71.8% [middle of 8 runs]
same,"viability, T/C",compound 0.1 µM,30.5% [middle of 8 runs]
same,"viability, T/C",compound 0.316 µM,9.42% [middle of 8 runs]
same,"viability, T/C",compound 1 µM,4.6% [middle of 8 runs]
same,IC50,[29],58.2 nM [middle of 8 runs]
C[C@@H](NC(=O)c1ncnc(N)c1Cl)c1ncc(C(=O)Nc2cc(C(F)(F)F)c(Cl)cn2)s1 + CC(Nc1ccc2c(c1)OCCn1cc(N3C(=O)OCC3C(F)F)nc1-2)C(N)=O,IC50,"curve of first compound, second compound 0.00316 µM",> 10 µM
same,IC50,"curve of first compound, second compound 0.01 µM",> 10 µM
same,IC50,[1],> 10 µM
same,IC50,[2],> 10 µM
same,IC50,[3],< 0.0316 µM
same,IC50,[4],< 0.0316 µM
same,"viability, T/C","second compound 0.00316 µM, first compound 0.0316 µM",106%
same,"viability, T/C","second compound 0.00316 µM, first compound 0.1 µM",83%
same,"viability, T/C","second compound 0.00316 µM, first compound 0.316 µM",122%
same,"viability, T/C","second compound 0.00316 µM, first compound 1 µM",83.3%
same,"viability, T/C","second compound 0.00316 µM, first compound 3.16 µM",116%
same,"viability, T/C","second compound 0.00316 µM, first compound 10 µM",109%
same,"viability, T/C","second compound 0.01 µM, first compound 0.0316 µM",99.8%
same,"viability, T/C","second compound 0.01 µM, first compound 0.1 µM",86.2%
same,"viability, T/C","second compound 0.01 µM, first compound 0.316 µM",85.4%
same,"viability, T/C","second compound 0.01 µM, first compound 1 µM",84.9%
same,"viability, T/C","second compound 0.01 µM, first compound 3.16 µM",118%
same,"viability, T/C","second compound 0.01 µM, first compound 10 µM",98.4%
same,"viability, T/C",[5],79.8%
same,"viability, T/C",[6],85.4%
same,"viability, T/C",[7],102%
same,"viability, T/C",[8],83%
same,"viability, T/C",[9],95.5%
same,"viability, T/C",[10],69.3%
same,"viability, T/C",[11],58.7%
same,"viability, T/C",[12],61.5%
same,"viability, T/C",[13],80%
same,"viability, T/C",[14],68%
same,"viability, T/C",[15],81.8%
same,"viability, T/C",[16],35%
same,"viability, T/C",[17],47.3%
same,"viability, T/C",[18],49.1%
same,"viability, T/C",[19],49.7%
same,"viability, T/C",[20],54%
same,"viability, T/C",[21],43.4%
same,"viability, T/C",[22],23.9%
same,"viability, T/C",[23],34.8%
same,"viability, T/C",[24],40.4%
same,"viability, T/C",[25],32.6%
same,"viability, T/C",[26],33.6%
same,"viability, T/C",[27],30.9%
same,"viability, T/C",[28],14.1%
CC(Nc1ncnc2nc[nH]c12)c1cc2cccc(Cl)c2c(=O)n1-c1ccccc1 (stereo not given),"viability, T/C",compound 0.0316 µM,107% [middle of 8 runs]
same,"viability, T/C",compound 0.1 µM,108% [middle of 8 runs]
same,"viability, T/C",compound 0.316 µM,115% [middle of 8 runs]
same,"viability, T/C",compound 1 µM,107% [middle of 8 runs]
same,"viability, T/C",compound 3.16 µM,98.8% [middle of 8 runs]
same,"viability, T/C",compound 10 µM,86.2% [middle of 8 runs]
same,IC50,[29],> 10 µM
CC(C)n1nc(-c2ccc3oc(N)nc3c2)c2c(N)ncnc21,"viability, T/C",compound 0.000316 µM,113% [middle of 4 runs]
same,"viability, T/C",compound 0.001 µM,93.4% [middle of 4 runs]
same,"viability, T/C",compound 0.00316 µM,113% [middle of 4 runs]
same,"viability, T/C",compound 0.01 µM,91.1% [middle of 4 runs]
same,"viability, T/C",compound 0.0316 µM,80.6% [middle of 4 runs]
same,"viability, T/C",compound 0.1 µM,17.8% [middle of 4 runs]
same,IC50,curve of compound,55.3 nM [middle of 4 runs]
